Like-named read-outs stand apart in the source and are kept apart here.
Columns and labels:
NDM-1 = NDM-1 (Klebsiella pneumoniae, UniProt C7C422); assay: biochemical; assay type: biochemical; conditions: read-out: NDM-1 IC50
IMP-1 = IMP-1 (Serratia marcescens, UniProt P52699); assay: biochemical; assay type: biochemical; conditions: read-out: IMP-1 IC50
VIM-1 = VIM-1 (Pseudomonas aeruginosa (strain ATCC 15692 / DSM 22644 / CIP 104116 / JCM 14847 / LMG 12228 / 1C / PRS 101 / PAO1), UniProt A0A0F7KYQ8); assay: Enzyme activity: determination of IC50, fluorescence assay with CCF2-FA substrate (VIM-1); assay type: biochemical
[1] = test system: Escherichia coli expressing NDM-1 (CLB30016); assay: Antibiotic potentiation activity: synergistic concentration (MITC95) with imipenem, OD600 growth; assay type: cell-based; conditions: for Escherichia coli expressing NDM-1 (CLB 30016) MITC95: concentration giving 95% inhibition of bacterial growth
Procedure, shortened: (§1)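 Each strain, suspended in saline from overnight colonies and diluted 1:100 into 1.1× CAMHB, is dosed with imipenem at 4 μg/ml (or 1 μg/ml) plus compound, incubated 22–24 h at 35 °C and read by absorbance.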

[2] = test system: Klebsiella pneumoniae expressing VIM-1 (IHMA599644); assay: as above; assay type: cell-based; conditions: for Klebsiella pneumoniae expressing VIM-1 (IHMA 599644) MITC95: concentration giving 95% inhibition of bacterial growth
Procedure, shortened: as §1

[3] = test system: Serratia marcescens expressing IMP-1 (CL5741); assay: as above; assay type: cell-based; conditions: for Serratia marcescens expressing IMP-1 (CL5741) MITC95: concentration giving 95% inhibition of bacterial growth
Procedure, shortened: as §1

[4] = fluorescence assay with CCF2-FA substrate
[5] = fluorescence assay with CCF2-FA substrate, read-out: VIM-1 IC50
[6] = NDM-1 enzyme, CCF2-FA fluorescence assay
[7] = IMP-1 enzyme, CCF2-FA fluorescence assay
[8] = VIM-1 enzyme, CCF2-FA fluorescence assay, read-out: VIM-1 IC50
[9] = Escherichia coli expressing NDM-1 (CLB30016), 95% growth inhibition
[10] = Klebsiella pneumoniae expressing VIM-1 (IHMA599644), 95% growth inhibition
[11] = Serratia marcescens expressing IMP-1 (CL5741), 95% growth inhibition
[12] = VIM-1 IC50, fluorescence assay with CCF2-FA substrate
[13] = CLB30016 (NDM-1), 95% inhibition of bacterial growth
[14] = IHMA599644 (VIM-1), 95% inhibition of bacterial growth
[15] = CL5741 (IMP-1), 95% inhibition of bacterial growth
[16] = NDM-1 enzyme, CCF2-FA substrate
[17] = IMP-1 enzyme, CCF2-FA substrate
[18] = VIM-1 enzyme, CCF2-FA substrate, read-out: VIM-1 IC50
[19] = (CLB30016, NDM-1), 95% growth inhibition
[20] = Klebsiella pneumoniae IHMA599644 (VIM-1), 95% growth inhibition
[21] = Serratia marcescens CL5741 (IMP-1), 95% growth inhibition

Sequence of NDM-1 (C7C422 whole entry, looked up, species assumed): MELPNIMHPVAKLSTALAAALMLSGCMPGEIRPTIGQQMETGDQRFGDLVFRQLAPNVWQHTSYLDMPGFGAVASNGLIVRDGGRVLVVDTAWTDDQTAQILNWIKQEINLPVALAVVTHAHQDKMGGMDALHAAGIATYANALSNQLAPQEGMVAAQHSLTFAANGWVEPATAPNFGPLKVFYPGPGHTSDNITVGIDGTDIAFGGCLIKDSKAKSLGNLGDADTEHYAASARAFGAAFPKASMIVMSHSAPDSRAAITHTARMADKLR
Sequence of IMP-1 (P52699 whole entry, looked up): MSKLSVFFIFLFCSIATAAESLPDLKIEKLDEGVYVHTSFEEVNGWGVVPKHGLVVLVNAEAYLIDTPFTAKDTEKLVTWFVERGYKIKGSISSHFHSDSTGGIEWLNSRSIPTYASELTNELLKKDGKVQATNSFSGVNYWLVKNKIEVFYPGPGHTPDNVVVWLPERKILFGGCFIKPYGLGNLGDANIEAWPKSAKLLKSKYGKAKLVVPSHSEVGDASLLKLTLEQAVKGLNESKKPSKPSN

CC(C)(C)Cc1cccc(S(N)(=O)=O)c1-c1nnn[nH]1 [Example 159, 3-neopentyl-2-(1H-tetrazol-5-yl)benzenesulfonamide]
IC50 (NDM-1; [4]): 34 nM
IC50 (IMP-1; [4]): 526 nM
IC50 (VIM-1; [5]): 3390 nM
Escherichia coli expressing NDM-1 (CLB 30016) MITC95 [1]: 3.125 µM
Klebsiella pneumoniae expressing VIM-1 (IHMA 599644) MITC95 [2]: >200 µM
Serratia marcescens expressing IMP-1 (CL5741) MITC95 [3]: 18.75 µM

NCc1ccc(-c2ccc(C(F)(F)F)c(S(N)(=O)=O)c2-c2nn[nH]n2)cc1 [Example 439, 4′-(aminomethyl)-2-(2H-tetrazol-5-yl)-4-(trifluoromethyl)-[1,1′-biphenyl]-3-sulfonamide]
IC50 (NDM-1; [6]): 11.9 nM
IC50 (IMP-1; [7]): 20.6 nM
IC50 (VIM-1; [8]): 4.05 nM
Escherichia coli MITC95 [1, 9]: 0.7813 µM
Klebsiella pneumoniae MITC95 [2, 10]: 1.563 µM
Serratia marcescens MITC95 [3, 11]: 0.5859 µM

CC(C)Cc1cccc(S(N)(=O)=O)c1-c1nn[nH]n1 [Example 167, 3-isobutyl-2-(2H-tetrazol-5-yl)benzenesulfonamide]
IC50 (NDM-1; [4]): 12.4 nM
IC50 (IMP-1; [4]): 260 nM
IC50 (VIM-1; [5]): 1030 nM
Escherichia coli expressing NDM-1 (CLB 30016) MITC95 [1]: 1.563 µM
Klebsiella pneumoniae expressing VIM-1 (IHMA 599644) MITC95 [2]: 200 µM
Serratia marcescens expressing IMP-1 (CL5741) MITC95 [3]: 9.375 µM

NC1CCCC1N1CC(c2ccc(-c3ccc(C(F)(F)F)c(S(N)(=O)=O)c3-c3nnn[nH]3)cc2)C1 (stereo not drawn) [Example 811, 4′-[1-(2-aminocyclopentyl)azetidin-3-yl]-2-(1H-tetrazol-5-yl)-4-(trifluoromethyl)biphenyl-3-sulfonamide]
IC50 (NDM-1; [4]): 4.78 nM
IC50 (IMP-1; [4]): 9.42 nM
IC50 (VIM-1; [12]): 27.9 nM
Escherichia coli MITC95 [1, 13]: 1.563 µM
Klebsiella pneumoniae MITC95 [2, 14]: 100 µM
Serratia marcescens MITC95 [3, 15]: 6.25 µM

NC[C@H]1CC[C@H](c2ccc(CCC3CCNCC3)c(S(N)(=O)=O)c2-c2nnn[nH]2)CC1 [Example 591, 3-((1r,4r)-4-(aminomethyl)cyclohexyl)-6-(2-(piperidin-4-yl)ethyl)-2-(1H-tetrazol-5-yl)benzenesulfonamide]
IC50 (NDM-1; [16]): 16 nM
IC50 (IMP-1; [17]): 320 nM
IC50 (VIM-1; [18]): 574 nM
Escherichia coli MITC95 [1, 19]: 1.563 µM
Klebsiella pneumoniae MITC95 [2, 20]: 25 µM
Serratia marcescens MITC95 [3, 21]: 6.25 µM

NS(=O)(=O)c1c(C[C@H]2CC[C@H](N)CC2)ccc(-c2ccc(C3CCNC3)cc2)c1-c1nn[nH]n1 (stereo partly drawn) [Example 582, 4-(((1r,4r)-4-aminocyclohexyl)methyl)-4′-(pyrrolidin-3-yl)-2-(2H-tetrazol-5-yl)-[1,1′-biphenyl]-3-sulfonamide]
IC50 (NDM-1; [16]): 3.99 nM
IC50 (IMP-1; [17]): 17.4 nM
IC50 (VIM-1; [18]): 1.57 nM
Escherichia coli MITC95 [1, 19]: 0.7813 µM
Klebsiella pneumoniae MITC95 [2, 20]: 1.563 µM
Serratia marcescens MITC95 [3, 21]: 1.563 µM

CC(CO)(CO)c1ccc(-c2ccc(C(F)(F)F)c(S(N)(=O)=O)c2-c2nnn[nH]2)cc1 [Example 725, 4′-[2-hydroxy-1-(hydroxymethyl)-1-methylethyl]-2-(1H-tetrazol-5-yl)-4-(trifluoromethyl)biphenyl-3-sulfonamide]
IC50 (NDM-1; [16]): 0.767 nM
IC50 (IMP-1; [17]): 0.92 nM
IC50 (VIM-1; [18]): 1.27 nM
Escherichia coli MITC95 [1, 19]: 12.5 µM
Klebsiella pneumoniae MITC95 [2, 20]: 25 µM
Serratia marcescens MITC95 [3, 21]: 6.25 µM

NCC1CCN(c2ccc(C(F)(F)F)c(S(N)(=O)=O)c2-c2nnn[nH]2)CC1 [Example 821, 3-[4-(aminomethyl)-1-piperidyl]-2-(1H-tetrazol-5-yl)-6-(trifluoromethyl)benzenesulfonamide]
IC50 (NDM-1; [4]): 18.1 nM
IC50 (IMP-1; [4]): 55.1 nM
IC50 (VIM-1; [12]): 0.496 nM
Escherichia coli MITC95 [1, 13]: 12.5 µM
Klebsiella pneumoniae MITC95 [2, 14]: 12.5 µM
Serratia marcescens MITC95 [3, 15]: 6.25 µM

Nc1ccc(-c2ccc(C(F)(F)F)c(S(N)(=O)=O)c2-c2nnn[nH]2)nc1 [Example 562, 3-(5-aminopyridin-2-yl)-2-(1H-tetrazol-5-yl)-6-(trifluoromethyl)benzenesulfonamide]
IC50 (NDM-1; [16]): 5 nM
IC50 (IMP-1; [17]): 7.55 nM
IC50 (VIM-1; [18]): 2.35 nM
Escherichia coli MITC95 [1, 19]: 0.5859 µM
Klebsiella pneumoniae MITC95 [2, 20]: 3.125 µM
Serratia marcescens MITC95 [3, 21]: 0.3906 µM

NS(=O)(=O)c1cccc(C2=CCOCC2)c1-c1nnn[nH]1 [Example 140, 3-(3,6-dihydro-2H-pyran-4-yl)-2-(1H-tetrazol-5-yl)benzenesulfonamide]
IC50 (NDM-1; [4]): 7.68 nM
IC50 (IMP-1; [4]): 160 nM
IC50 (VIM-1; [5]): 388 nM
Escherichia coli expressing NDM-1 (CLB 30016) MITC95 [1]: 0.5859 µM
Klebsiella pneumoniae expressing VIM-1 (IHMA 599644) MITC95 [2]: 50 µM
Serratia marcescens expressing IMP-1 (CL5741) MITC95 [3]: 6.25 µM

NC1CCCC(N2CC(c3ccc(-c4ccc(C(F)(F)F)c(S(N)(=O)=O)c4-c4nnn[nH]4)cc3)C2)C1 (stereo not drawn) [Example 810, 4′-[1-(3-aminocyclohexyl)azetidin-3-yl]-2-(1H-tetrazol-5-yl)-4-(trifluoromethyl)biphenyl-3-sulfonamide]
IC50 (NDM-1; [4]): 7.06 nM
IC50 (IMP-1; [4]): 8.92 nM
IC50 (VIM-1; [5]): 26.8 nM
Escherichia coli MITC95 [1, 13]: 3.125 µM
Klebsiella pneumoniae MITC95 [2, 14]: 100 µM
Serratia marcescens MITC95 [3, 15]: 6.25 µM

NC[C@H]1CC[C@H](Cc2ccc(-c3ccc(C4CCNC4)cc3)c(-c3nnn[nH]3)c2S(N)(=O)=O)CC1 (stereo partly drawn) [Example 586, 4-(((1r,4r)-4-(aminomethyl)cyclohexyl)methyl)-4′-(pyrrolidin-3-yl)-2-(1H-tetrazol-5-yl)-[1,1′-biphenyl]-3-sulfonamide]
IC50 (NDM-1; [16]): 2.34 nM
IC50 (IMP-1; [17]): 7.14 nM
IC50 (VIM-1; [18]): 1.16 nM
Escherichia coli MITC95 [1, 19]: 0.7813 µM
Klebsiella pneumoniae MITC95 [2, 20]: 1.563 µM
Serratia marcescens MITC95 [3, 21]: 1.563 µM

NS(=O)(=O)c1c(C(F)(F)F)ccc(-c2cccc(N3CCCC(O)C3)c2)c1-c1nnn[nH]1 (stereo not drawn) [Example 739, 3′-(3-hydroxypiperidin-1-yl)-2-(1H-tetrazol-5-yl)-4-(trifluoromethyl)biphenyl-3-sulfonamide]
IC50 (NDM-1; [16]): 3.84 nM
IC50 (IMP-1; [17]): 6.82 nM
IC50 (VIM-1; [18]): 2.77 nM
Escherichia coli MITC95 [1, 19]: 25 µM
Klebsiella pneumoniae MITC95 [2, 20]: >200 µM
Serratia marcescens MITC95 [3, 21]: 25 µM

NS(=O)(=O)c1c(CC2(F)CCNCC2)ccc(-c2ccc(C3CCNCC3)cc2)c1-c1nn[nH]n1 [Example 464, 4-((4-fluoropiperidin-4-yl)methyl)-4′-(piperidin-4-yl)-2-(2H-tetrazol-5-yl)-[1,1′-biphenyl]-3-sulfonamide]
IC50 (NDM-1; [6]): 3.82 nM
IC50 (IMP-1; [7]): 18.7 nM
IC50 (VIM-1; [8]): 1.95 nM
Escherichia coli MITC95 [1, 9]: 0.7813 µM
Klebsiella pneumoniae MITC95 [2, 10]: 1.563 µM
Serratia marcescens MITC95 [3, 11]: 1.563 µM

NC1CCCc2ccc(-c3ccc(C(F)(F)F)c(S(N)(=O)=O)c3-c3nnn[nH]3)cc21 (stereo not drawn) [Example 731, 3-(8-amino-5,6,7,8-tetrahydronaphthalen-2-yl)-2-(1H-tetrazol-5-yl)-6-(trifluoromethyl)benzenesulfon-amide]
IC50 (NDM-1; [16]): 61.3 nM
IC50 (IMP-1; [17]): 117 nM
IC50 (VIM-1; VIM-1 IC50, VIM-1 enzyme, CCF2-FA substrate): 22.1 nM
Escherichia coli MITC95 [1, 19]: 25 µM
Klebsiella pneumoniae MITC95 [2, 20]: 50 µM
Serratia marcescens MITC95 [3, 21]: 50 µM

Nc1ccc(-c2cccc(S(N)(=O)=O)c2-c2nnn[nH]2)c2ccncc12 [Example 415, 3-(8-amino-5-isoquinolyl)-2-(1H-tetrazol-5-yl)benzenesulfonamide]
IC50 (NDM-1; [6]): 0.58 nM
IC50 (IMP-1; [7]): 32.3 nM
IC50 (VIM-1; [8]): 1.1 nM
Escherichia coli MITC95 [1, 9]: 0.5859 µM
Klebsiella pneumoniae MITC95 [2, 10]: 3.125 µM
Serratia marcescens MITC95 [3, 11]: 1.172 µM

Source: US9708336B2, “Metallo-beta-lactamase inhibitors” (priority 2014, dated 2017)
